# Data: paper PMC12396409, “Screening and hit evaluation of a microbial metabolite library against the pathogenic Plasmodium falciparum and Toxoplasma gondii parasites” (International Journal for Parasitology: Drugs and Drug …, 2025)
# Like-named read-outs stand apart in the source and are kept apart here.
# What was measured:
# [1] = tested on: P. falciparum 3D7 parasites; experiment: P. falciparum growth inhibition assay, 1-cycle (72 h treatment), SYBR DNA staining (library screen at 2 μg/mL and dose-response); assay type: cell-based, Plasmodium falciparum; conditions: for activity at 2 µg/mL: Plasmodium falciparum, 3D7
# [2] = tested on: P. falciparum 3D7 parasites; experiment: P. falciparum growth inhibition assay, 2-cycle (120 h treatment), delayed-death screen and dose-response; assay type: cell-based, Plasmodium falciparum; conditions: for activity at 2 µg/mL: Plasmodium falciparum, 3D7
# [3] = tested on: T. gondii RH strain (RH-Tub-eYFP) tachyzoites; experiment: microbe, parasite or virus in culture; assay type: cell-based, Toxoplasma gondii; conditions: for percent parasite growth at 2 µg/mL: Toxoplasma gondii
# [4] = library screen at 2 μg/mL, 72 h, % growth, replicate 1
# [5] = library screen at 2 μg/mL, 72 h, % growth, replicate 2
# [6] = library screen at 2 μg/mL, 120 h, % growth, replicate 1
# [7] = library screen at 2 μg/mL, 120 h, % growth, replicate 2
compound,measurement,setting,value
Enniatin A1,Pf_72h_%Growth_Rep1,[1]; [4],5.31%
same,Pf_72h_%Growth_Rep2,[1]; [5],1.97%
same,Pf_120h_%Growth_Rep1,[2]; [6],8.66%
same,Pf_120h_%Growth_Rep2,[2]; [7],18.71%
same,Tg_72h_%Growth_Rep1,[3]; [4],-0.69%
same,Tg_72h_%Growth_Rep2,[3]; [5],13.13%
CN(N=O)C(=O)N[C@H]1C(O)O[C@H](CO)[C@@H](O)[C@@H]1O (mixture of isomers) [Streptozotocin],Pf_72h_%Growth_Rep1,"[1]; P. falciparum, 72 h, parasite screen 2 μg/mL, % growth, replicate 1",87.59%
same,Pf_72h_%Growth_Rep2,"[1]; P. falciparum, 72 h, parasite screen 2 μg/mL, % growth, replicate 2",86.69%
same,Pf_120h_%Growth_Rep1,"[2]; P. falciparum, 120 h, parasite screen 2 μg/mL, % growth, replicate 1",176.62%
same,Pf_120h_%Growth_Rep2,"[2]; P. falciparum, 120 h, parasite screen 2 μg/mL, % growth, replicate 2",92.69%
same,Tg_72h_%Growth_Rep1,"[3]; T. gondii, 72 h, parasite screen 2 μg/mL, % growth, replicate 1",87.36%
same,Tg_72h_%Growth_Rep2,"[3]; T. gondii, 72 h, parasite screen 2 μg/mL, % growth, replicate 2",105.65%
CC1=CCCC(C)C(O)C(C)C(O)CCC=CC(C)C(O)C=CC(C)C(O)C(C)=CC(O[C@H]2O[C@H](CO)[C@@H](O)[C@H](O)[C@@H]2O)C(O)CC(O)CC(O)CC(O)C(C)C(O)C(C)C(O)CC(O)CC(O)C=CCC(C(C)C(O)CCCN)OC1=O (stereo partly drawn) [Desertomycin A],Pf_72h_%Growth_Rep1,[1]; [4],84.25%
same,Pf_72h_%Growth_Rep2,[1]; [5],90.28%
same,Pf_120h_%Growth_Rep1,[2]; [6],93.27%
same,Pf_120h_%Growth_Rep2,[2]; [7],101.55%
same,Tg_72h_%Growth_Rep1,[3]; [4],97.84%
same,Tg_72h_%Growth_Rep2,[3]; [5],106.51%
C[C@@H](O)[C@H]1C(=O)N2C(C(=O)O)=C(S[C@@H]3CN[C@H](CNS(N)(=O)=O)C3)[C@H](C)[C@H]12 [Doripenem],activity at 2 µg/mL,"[1]; library screen at 2 μg/mL, 72 h, % growth, replicate 1, read-out: Pf_72h_%Growth_Rep1",81.9%
same,activity at 2 µg/mL,"[1]; library screen at 2 μg/mL, 72 h, % growth, replicate 2, read-out: Pf_72h_%Growth_Rep2",66.8%
same,activity at 2 µg/mL,"[2]; library screen at 2 μg/mL, 120 h, % growth, replicate 1, read-out: Pf_120h_%Growth_Rep1",85.1%
same,activity at 2 µg/mL,"[2]; library screen at 2 μg/mL, 120 h, % growth, replicate 2, read-out: Pf_120h_%Growth_Rep2",121%
same,percent parasite growth at 2 µg/mL,"[3]; 72 h, library screen at 2 μg/mL, 72 h, % growth, replicate 1, read-out: Tg_72h_%Growth_Rep1",119%
same,percent parasite growth at 2 µg/mL,"[3]; 72 h, library screen at 2 μg/mL, 72 h, % growth, replicate 2, read-out: Tg_72h_%Growth_Rep2",89.3%
COc1cc2c(c3oc(=O)c4c(c13)CCC4=O)[C@@H]1CCO[C@@H]1O2 [Aflatoxin B2],Pf_72h_%Growth_Rep1,[1],82.21%
same,Pf_72h_%Growth_Rep2,[1],80.10%
same,Pf_120h_%Growth_Rep1,[2],93.01%
same,Pf_120h_%Growth_Rep2,[2],84.17%
same,Tg_72h_%Growth_Rep1,[3],112.94%
same,Tg_72h_%Growth_Rep2,[3],92.34%
CN1C(=O)c2ccccc2NC(=O)[C@]12O[C@@H]2c1ccccc1 [Cyclopenin],Pf_72h_%Growth_Rep1,"[1]; P. falciparum, 72 h, screen at 2 μg/mL, replicate 1",83.83%
same,Pf_72h_%Growth_Rep2,"[1]; P. falciparum, 72 h, screen at 2 μg/mL, replicate 2",77.00%
same,Pf_120h_%Growth_Rep1,"[2]; P. falciparum, 120 h, screen at 2 μg/mL, replicate 1",83.48%
same,Pf_120h_%Growth_Rep2,"[2]; P. falciparum, 120 h, screen at 2 μg/mL, replicate 2",80.30%
same,Tg_72h_%Growth_Rep1,"[3]; T. gondii, 72 h, screen at 2 μg/mL, replicate 1",136.91%
same,Tg_72h_%Growth_Rep2,"[3]; T. gondii, 72 h, screen at 2 μg/mL, replicate 2",103.54%
CO[C@@]12[C@H](COC(N)=O)C3=C(C(=O)C(C)=C(N)C3=O)N1C[C@@H]1N[C@@H]12 [BIA-M1183],Pf_72h_%Growth_Rep1,"[1]; P. falciparum 3D7, 72 h, parasite screen at 2 μg/mL, % growth, replicate 1",82.66%
same,Pf_72h_%Growth_Rep2,"[1]; P. falciparum 3D7, 72 h, parasite screen at 2 μg/mL, % growth, replicate 2",112.82%
same,Pf_120h_%Growth_Rep1,"[2]; P. falciparum 3D7, 120 h, parasite screen at 2 μg/mL, % growth, replicate 1",92.29%
same,Pf_120h_%Growth_Rep2,"[2]; P. falciparum 3D7, 120 h, parasite screen at 2 μg/mL, % growth, replicate 2",100.91%
same,Tg_72h_%Growth_Rep1,"[3]; T. gondii, 72 h, parasite screen at 2 μg/mL, % growth, replicate 1",127.95%
same,Tg_72h_%Growth_Rep2,"[3]; T. gondii, 72 h, parasite screen at 2 μg/mL, % growth, replicate 2",82.68%
COC1C=CC=C(C)C(=O)NC2=CC(=O)C=C(C2=O)C(OC)C(C)CC(OC)C(OC)C(C)C=C(C)C1OC(N)=O (stereo not drawn) [BIA-H1036],Pf_72h_%Growth_Rep1,"[1]; P. falciparum 3D7, 72 h, library screen at 2 μg/mL, % growth, replicate 1",51.92%
same,Pf_72h_%Growth_Rep2,"[1]; P. falciparum 3D7, 72 h, library screen at 2 μg/mL, % growth, replicate 2",44.34%
same,Pf_120h_%Growth_Rep1,"[2]; P. falciparum 3D7, 120 h, library screen at 2 μg/mL, % growth, replicate 1",68.16%
same,Pf_120h_%Growth_Rep2,"[2]; P. falciparum 3D7, 120 h, library screen at 2 μg/mL, % growth, replicate 2",41.77%
same,Tg_72h_%Growth_Rep1,"[3]; T. gondii RH, 72 h, library screen at 2 μg/mL, % growth, replicate 1",133.21%
same,Tg_72h_%Growth_Rep2,"[3]; T. gondii RH, 72 h, library screen at 2 μg/mL, % growth, replicate 2",80.30%
C[C@H]1CC[C@H]2[C@@H](C=C[C@@H]3[C@H]4[C@@H](C)O[C@]5(O)[C@@H](CO)N(C)C(=O)[C@]45C(=O)[C@@]32C)C1 [Fusarisetin A],Pf_72h_%Growth_Rep1,[1]; [4],74.99%
same,Pf_72h_%Growth_Rep2,[1]; [5],87.91%
same,Pf_120h_%Growth_Rep1,[2]; [6],74.69%
same,Pf_120h_%Growth_Rep2,[2]; [7],108.30%
same,Tg_72h_%Growth_Rep1,[3]; [4],159.47%
same,Tg_72h_%Growth_Rep2,[3]; [5],97.52%
